{"source": "patent US20250073229A1", "about": "“PHARMACEUTICAL COMPOSITION FOR PREVENTING AND/OR TREATING HEART FAILURE” (OSAKA UNIVERSITY, priority 2022, published 2025)", "test_system": "left ventricular pressure-loaded model mice (TAC mice)", "assay": "Echocardiography in transverse aortic constriction (TAC) left ventricular pressure-loaded model mice", "type": "in vivo, C57BL/6 mice", "protocol": "Ten-week-old male C57BL/6 mice (about 25 g) were treated with transverse aortic constriction (TAC) to produce left ventricular pressure-loaded model mice (TAC mice). At 2 weeks after TAC (hypertrophic phase), an osmotic mini-pump (Alzet2006) was implanted subcutaneously, and continuous subcutaneous administration of Compound 011 or a vehicle (a solution obtained by mixing dimethyl sulfoxide and polyethylene glycol 300 in a weight ratio of 1:1) was started at a dose of 5 mg/kg/day. The left ventricular wall thickness (IVS), left ventricular end-diastolic diameter (LVDd), left ventricular fractional shortening (LVFS), and left ventricular ejection fraction (LVEF) were observed and evaluated by echocardiography every two weeks after the start of administration (Compound 011 group: 11 animals; vehicle group: 9 animals). In advance, Compound 011 was administered to non-TAC-treated mice at 5 mg/kg/day with an osmotic mini-pump (Alzet2006) in the same manner, and the blood level (tail vein blood sample) was measured at 2, 4, and 6 weeks after administration and the body blood pressure was measured at 2 weeks after administration to thus confirm that the dose of 5 mg/kg/day could be used for TAC mice.", "key": {"[1]": {"conditions": "8 weeks after TAC (6 weeks after start of administration), 5 mg/kg/day continuous subcutaneous by osmotic mini-pump, p<0.05 vs. vehicle"}, "[2]": {"conditions": "8 weeks after TAC, 5 mg/kg/day continuous subcutaneous"}}, "data": [{"smiles": "O=C(O)c1cnc(N2CCN(c3noc4cccc(C(F)(F)F)c34)CC2)c(Cl)c1", "note": "[Compound 011, 5-Chloro-6-(4-(4-(trifluoromethyl)benzo[d]isoxazol-3-yl)piperazin-1-yl)nicotinic acid]", "values": [{"measurement": "progressive deterioration of LVFS and LVEF", "setting": "5 mg/kg/day continuous subcutaneous, vs. vehicle group", "result": "significantly suppressed"}, {"measurement": "LVEF (left ventricular ejection fraction)", "setting": "[1]", "result": "80.2±2.7", "unit": "%"}, {"measurement": "left ventricular fractional shortening (LVFS) at 8 weeks after TAC", "setting": "[1]", "result": "48.8±2.6", "unit": "%"}, {"measurement": "interventricular septum (IVS), difference vs. vehicle group", "setting": "[2]", "result": "no significant difference"}, {"measurement": "left ventricular end-diastolic diameter (LVDd), difference vs. vehicle group", "setting": "[2]", "result": "no significant difference"}]}]}
